Assay results reported in patent US4608365A, “Treatment of neurologic functions” (priority 1984, dated 1986).

Key:
[1] = system: infant with infantile spinal muscular atrophy; parameters: species or system human; settings: in vivo
ALS patients [2] = assay type: in vivo, human
Procedure: As shown in Examples I-V, intravenous infusion of thyrotropin-releasing hormone improves weakness and spasticity from lower motor neuron and upper motor neuron involvement in patients with amyotrophic lateral sclerosis and proximal spinal muscular atrophy. In an additional study, forty-one ALS patients were treated with 461 days of subcutaneous TRH administered 75-150 mg once daily or 75 mg twice daily. The subcutaneous doses were sometimes administered by patients or spouses. Included were all forms of ALS, and all patients were videotaped pre- and post-treatment. […] Saline injections produced no responses. The previously-noted lesser benefit and side-effects in females was less evident.
Benefit and side-effects of TRH administered subcutaneously were qualitatively and quantitatively similar to those of intravenous TRH described in Examples III and IV. […] Response times were somewhat different.
(§1) There were several control aspects of the TRH studies. […] The patients given subcutaneous TRH had treatments interspersed with saline placebo injections. […] The time course of response was not known before the study and, in fact, it was expected that the onset would be later and the duration of response longer than was actually found. Different patients responded to different doses of TRH, and the sex difference in response (woman apparently less responsive) was not expected. […] There were three observers, one unaware of the infusion status. In addition, clinical examinations of all patients of Examples III-VII were videotaped and later reviewed by several observers.
In each of the foregoing Examples, the TRH was administered in a normal saline solution containing 100 mg/ml of TRH. The pH of the solution was not adjusted. This particular carrier and strength was selected for its ready availability, the convenience in calculating dosages administered and its similarity to the placebo solution, and additional carriers may be employed as desired. Timed-release carriers would be particularly advantageous, and are within the scope of the invention.

[3] = system: amyotrophic lateral sclerosis patients; test: Effect of TRH on chronic joint pain in ALS patients (Example VIII); assay type: in vivo, human; settings: after TRH treatment
Description: In untreated amyotrophic lateral sclerosis patients, especially in more advanced stages of the disease, aching of joints is common, (e.g., in a "frozen shoulder" or painful hip). Often, the pain is so severe as to impair sleep. […] The reduction of pain was clearly appreciated when the patients were awake, and it also allowed much more restful nights without their being awakened frequently by pain. […] A logical extension of this observation is that pain of many causes, including other forms of arthritic pain, might be lessened by TRH, or an analog, active derivative or analog of an active derivative of TRH.

non-ALS patients = test: Intravenous and subcutaneous TRH in non-ALS patients with lower or upper motor neuron abnormality (Example VII); assay type: in vivo, human; settings: i.v. and s.c., seven non-ALS patients
Description: The dosage, benefits and side-effects were essentially similar to those described in Examples II, V and VI.

ALS patients [4] = assay type: in vivo, human; remark: listed apart in the source
Procedure: Nine fasting ALS patients (seven men, and two women; duration of disease, two, three, five-sixths of a year, five-sixths of a year, two and a half, four, one, one and four years, respectively) were given intravenous TRH at rates of 0.5-8 mg/minute, total 500 mg during two to five hours in one day, for one or two days. Due to the fact that the effects during the second day resembled those on the first day in the first two patients (men) and because supplies of TRH were limited, […] were treated for one day only. Before and throughout TRH administration, motor functions were repeatedly examined, the tests being selected according to the specific clinical involvement in each patient. Testing in all patients was videotaped. […] For example, muscles (such as biceps, triceps, deltoid, iliopsoas, or peroneal) that could be overcome easily by one finger before TRH administration became completely resistant to the full force of the examiner's hand (i.e., became normal or virtually normal). In one person, thumb abduction and finger-thumb pincer movement, easily overcome before the infusion of TRH, became normal. […] Speech clarity and volume improved. Spasticity of the legs lessened, as evidenced by easier, more rapid and "looser" bicycling-like movement, heel-shin movement and heel-knee tapping of the legs, as well as more agile walking.
As an extension of the Example III and IV studies, a total of twenty-three patients (including those of Examples II and IV) were given 156 intravenous dose-days total.
as §1

[5] = human, in vivo
Procedure: In three ALS patients given 25 mg TRH intravenously during 6 minutes, concommitant TRH values were measured in the plasma and serum at 0, 6 and 12 minutes.

effect on mood, alertness, excitation, appetite or sleep (ALS patients [2]; human, in vivo): no noticeable effect
cerebrospinal fluid TRH level [5]: ≤ 5368 pg/mL
SMILES: NC(=O)[C@@H]1CCCN1C(=O)[C@H](Cc1cnc[nH]1)NC(=O)[C@@H]1CCC(=O)N1 [TRH, L-pyroglutamyl-L-histidyl-L-prolinamide]
safety and benefit on strength [1]: safety without side-effects and possible benefit on strength
improvement in neurologic deficits from hypofunction of lower and upper motor neurons (ALS patients [2]; ALS and other patients, therapeutic amounts (summary of all studies)): moderate to excellent improvement
muscle strength in retreated female non-responder of Example II (ALS patients [2]; a few months later, evaluated in more detail): slight but definite improvement of muscle strength
new side effects (ALS patients [2]; human, in vivo): very transient taste noted within a few minutes; asthmatic phenomena lasting about five minutes during maximal shivering in two patients with a history of asthma
strength and head tremor in one patient with hereditary ALS (ALS patients [2]; human, in vivo): improvement in strength and also improvement in a co-existing head tremor
transient shivering, onset and end (ALS patients [2]; human, in vivo, sc): beginning at three to ten minutes and lasting until thirty to sixty minutes
neuromuscular stamina (ALS patients [2]; s.c.): clearly increased
painful muscle cramps, spasms, spontaneous clonus and stiffness (ALS patients [2]; s.c.): eliminated or lessened for several days in all patients having them
painful spontaneous flexor withdrawal reflexes (ALS patients [2]; s.c.): remained eliminated for at least twelve days in some instances
swallowing (ALS patients [2]; s.c.): increased, eliminating choking on food and saliva accumulation in the mouth
time benefits in strength, cramps, spasticity and clonus often endured undiminished (ALS patients [2]; s.c.): twenty-four hours
time to maximal increased strength (ALS patients [2]; s.c.): one-and-a-half to two minutes
improvement (ALS patients [2]; s.c. 150 mg once daily or 75 mg twice daily (summary)): similarly striking improvement
response (ALS patients [2]; s.c. 75-150 mg once daily or 75 mg twice daily, forty-one ALS patients, 461 days): beneficial responses
stair climbing (ALS patients [2]; s.c., many patients): eleven flights of stairs (compared to two with difficulty before TRH)
aching of shoulder and hip joints (ALS patients [2]; s.c., severe ALS): temporarily reduced or abolished for at least one to three days
recovery of lost abilities (ALS patients [2]; s.c., some patients): regained abilities that had been lost for six to twelve months
spasticity, clonus and muscle cramps (ALS patients [2]; s.c., when shivering diminished or one to three hours thereafter): improved from their before-treatment status or completely abolished or absent
subcutaneous dose required per body weight (ALS patients [2]; single injection): ≥ 0.71 mg/kg of body weight
subcutaneous dose required (ALS patients [2]; single injection once, or similar amount twice-a-day): at least 50 mg
arthritic (joint) pain [3]: striking improvement
duration of pain improvement [3]: as long as one to four days
benefit (non-ALS patients): markedly benefited
intravenous rate at which striking improvement was shown (ALS patients [4]; Examples II and III (summary)): 2 mg/min
minimum intravenous infusion rate per body weight (ALS patients [4]; based on average patient weight of 70 kilograms): ≥ 14.3 μg/minute/kg of body weight
benefit and side-effects in the two women (ALS patients [4]; i.v. 0.5-8 mg/minute): much less benefit and many fewer side-effects than the men
quantitative response of women relative to men (ALS patients [4]; i.v. 0.5-8 mg/minute): resembled those of men on one-half to one-fourth of the TRH dosage
ankle clonus (ALS patients [4]; i.v. 2-8 mg/minute): decreased or disappeared
brisk tendon reflexes (ALS patients [4]; i.v. 2-8 mg/minute): diminished not at all or only slightly
extensor plantar (Babinski) responses (ALS patients [4]; i.v. 2-8 mg/minute): improved, becoming neutral or normal flexor
fasciculations (ALS patients [4]; i.v. 2-8 mg/minute): appeared to be unchanged
spasticity of the legs (ALS patients [4]; i.v. 2-8 mg/minute): lessened
speech clarity and volume (ALS patients [4]; i.v. 2-8 mg/minute): improved
vital capacity (ALS patients [4]; i.v. 2-8 mg/minute): increased, by as much as one liter
residual improvement after the end of the infusion (ALS patients [4]; i.v., total 500 mg): some slight improvement still evident twenty hours after the end of the infusion
time improvements were sustained after the infusion (ALS patients [4]; i.v., total 500 mg during two to five hours): one-half to one hour afterwards
improvement of muscle weakness and spasticity (ALS patients [4]; men, i.v. 2-8 mg/minute, in some areas of involvement): striking improvement
duration of full benefit after intravenous infusions (ALS patients [4]; summary): up to one hour
